# PMC12267471, “Discovery of natural scaffolds as HER2 inhibitors for breast cancer: virtual screening, molecular dynamics, and biological characterization with selectivity profiling” (Scientific Reports, 2025)
# Columns and labels:
# MCF10A cells = experiment: MTT cytotoxicity assay, non-tumorigenic MCF10A; type: cell-based, human
# SKBR3 cells = experiment: Transwell cell migration assay, SKBR3; type: cell-based, human; settings: SKBR3, 6.4 µM, 24 h
# Method: The in vitro transwell migration assay was conducted using an HTS-96 transwell permeable support chamber with 8 μm pores (Corning, USA) equipped with polyvinylpyrrolidone-free polycarbonate (PVPF) filters. […] The plate was incubated for 24 h at 37 °C. Then, the transwell inserts were incubated in the receiver plate with Calcein AM/cell dissociation solution at 37 °C in 5% CO2 incubator for 1 h, followed by measuring the fluorescence using a fluorescence plate reader with 485 nm excitation and 520 nm emission filter package. The relative fluorescence units were converted to cell count using a standard curve. The number of cells that moved to the lower side of the filter was used to assess migratory characteristics. The experiment in both cell lines was conducted in triplicate and data are presented as the mean ± SD.
# BT-474 cells [1] = experiment: Cell cycle analysis by PI flow cytometry, BT-474; type: cell-based, human; settings: BT-474, 3.5 µM, 24 h (control 59%)
# Method: To evaluate liquiritin’s impact on cell cycle progression, a propidium iodide (PI)-based flow cytometry assay was performed using the Cell Cycle Analysis Kit (ab139418, Abcam) following the manufacturer’s protocol. BT-474 and SKBR3 cells were seeded into 100 mm culture plates at a density of 1 × 10^6 cells/plate in RPMI 1640 medium supplemented with 10% FBS and incubated overnight. To synchronize cells in the G1 phase, cultures were rinsed twice with PBS and maintained in serum-reduced medium (0.5% FBS) for 48 h. Synchronized cells were subsequently treated with liquiritin at concentrations equivalent to its respective IC50 values (determined via prior proliferation assays) in serum-free media for 24 h.
# Post-treatment, cells were detached using trypsin, washed with ice-cold PBS, and fixed in 66% ethanol at 4 °C for 2 h. Fixed cells were rehydrated in PBS and stained with a freshly prepared PI solution (1 mg/mL PI, 5,500 U/mL RNase A in PBS) for 30 min at 4 °C in the dark. DNA content was quantified using a BD FACS Calibur flow cytometer (BD Biosciences, San Jose, CA), with 10,000 events analyzed per sample. Cell cycle phase distributions (G0/G1, S, G2/M) were calculated from histogram data generated by Cell Quest software (BD Biosciences). All assays were performed in triplicate to ensure reproducibility.
# BT-474 cells [2] = experiment: Annexin V-FITC/PI apoptosis detection, BT-474; type: cell-based, human; settings: BT-474, 3.5 µM, 48 h
# Method: To evaluate the induction of apoptosis, the translocation of phosphatidylserine to the outer cell membrane, as a hallmark of early apoptosis, was detected by the binding of annexin V, using the Annexin V-FITC Early Apoptosis Detection Kit (BD BioVision). Cells were seeded at a density of 5 × 10^5 cells per 100 mm culture plate and allowed to adhere overnight. […] At the end of the treatment period, cells were harvested by trypsinization, washed twice with ice-cold PBS, and resuspended in 500 µL of chilled 1X Annexin V Binding Buffer. To each sample, 5 µL of Annexin V-FITC conjugate and 5 µL of propidium iodide (PI, 50 µg/mL) were added. The cell suspensions were incubated for 5 minutes on ice in the dark to allow for staining.
# Flow cytometric analysis was performed using excitation at 488 nm and emission at 530 nm for FITC detection (FL1 channel) and phycoerythrin emission settings for PI detection (FL2 channel). Data acquisition and analysis were facilitated by Cell Quest software (BD Biosciences), with dot plots divided into four quadrants to distinguish different cell populations: lower left (LL) for viable, non-apoptotic cells (negative for both annexin V and PI); lower right (LR) for early apoptotic cells (annexin V-positive, PI-negative); upper left (UL) for dead or necrotic cells (PI-positive, annexin V-negative); and upper right (UR) for late apoptotic cells (double-positive). All assays were conducted in triplicate to ensure reliability and reproducibility.
# ALK = ALK (Homo sapiens, UniProt Q9UM73); experiment: SelectScreen Z'-LYTE kinase profiling; type: biochemical
# Method: (§1) Liquiritin was screened at 0.1 µM dose against a panel of 15 human kinases using SelectScreen® kinase profiling services offered by ThermoFisher Scientific™ (Madison, WI, USA). The percent inhibition of Liquiritin was assessed against each kinase in an automated high-throughput screening system using the time-resolved fluorescence resonance energy transfer Z´-LYTE™ kinase assay. Technology overview, protocols, and assay conditions are accessible at https://x.gd/UgBBB.
# EGFR (ErbB1) = EGFR (ErbB1) (Homo sapiens, UniProt P00533); experiment: SelectScreen Z'-LYTE kinase profiling; type: biochemical
# Method: as §1
# ERBB2 (HER2) = ERBB2 (HER2) (Homo sapiens, UniProt P04626); experiment: SelectScreen Z'-LYTE kinase profiling; type: biochemical
# Method: as §1
# ERBB4 (HER4) = ERBB4 (HER4) (Homo sapiens, UniProt Q15303); experiment: SelectScreen Z'-LYTE kinase profiling; type: biochemical
# Method: as §1
# FGFR1 = FGFR1 (Homo sapiens, UniProt P11362); experiment: SelectScreen Z'-LYTE kinase profiling; type: biochemical
# Method: as §1
# FLT1 (VEGFR1) = FLT1 (VEGFR1) (Homo sapiens, UniProt P17948); experiment: SelectScreen Z'-LYTE kinase profiling; type: biochemical
# Method: as §1
# IGF1R = IGF1R (Homo sapiens, UniProt P08069); experiment: SelectScreen Z'-LYTE kinase profiling; type: biochemical
# Method: as §1
# KDR (VEGFR2) = KDR (VEGFR2) (Homo sapiens, UniProt P35968); experiment: SelectScreen Z'-LYTE kinase profiling; type: biochemical
# Method: as §1
# KIT = KIT (Homo sapiens, UniProt P10721); experiment: SelectScreen Z'-LYTE kinase profiling; type: biochemical
# Method: as §1
# MET (cMet) = MET (cMet) (Homo sapiens, UniProt P08581); experiment: SelectScreen Z'-LYTE kinase profiling; type: biochemical
# Method: as §1
# MST1R (RON) = MST1R (RON) (Homo sapiens, UniProt Q04912); experiment: SelectScreen Z'-LYTE kinase profiling; type: biochemical
# Method: as §1
# PDGFRB (PDGFR beta) = PDGFRB (PDGFR beta) (Homo sapiens, UniProt P09619); experiment: SelectScreen Z'-LYTE kinase profiling; type: biochemical
# Method: as §1
# RET = RET (Homo sapiens, UniProt P07949); experiment: SelectScreen Z'-LYTE kinase profiling; type: biochemical
# Method: as §1
# ROS1 = ROS1 (Homo sapiens, UniProt P08922); experiment: SelectScreen Z'-LYTE kinase profiling; type: biochemical
# Method: as §1
# TYRO3 (RSE) = TYRO3 (RSE) (Homo sapiens, UniProt Q06418); experiment: SelectScreen Z'-LYTE kinase profiling; type: biochemical
# Method: as §1
# Chain of ERBB4 (HER4) (Q15303 26-1308): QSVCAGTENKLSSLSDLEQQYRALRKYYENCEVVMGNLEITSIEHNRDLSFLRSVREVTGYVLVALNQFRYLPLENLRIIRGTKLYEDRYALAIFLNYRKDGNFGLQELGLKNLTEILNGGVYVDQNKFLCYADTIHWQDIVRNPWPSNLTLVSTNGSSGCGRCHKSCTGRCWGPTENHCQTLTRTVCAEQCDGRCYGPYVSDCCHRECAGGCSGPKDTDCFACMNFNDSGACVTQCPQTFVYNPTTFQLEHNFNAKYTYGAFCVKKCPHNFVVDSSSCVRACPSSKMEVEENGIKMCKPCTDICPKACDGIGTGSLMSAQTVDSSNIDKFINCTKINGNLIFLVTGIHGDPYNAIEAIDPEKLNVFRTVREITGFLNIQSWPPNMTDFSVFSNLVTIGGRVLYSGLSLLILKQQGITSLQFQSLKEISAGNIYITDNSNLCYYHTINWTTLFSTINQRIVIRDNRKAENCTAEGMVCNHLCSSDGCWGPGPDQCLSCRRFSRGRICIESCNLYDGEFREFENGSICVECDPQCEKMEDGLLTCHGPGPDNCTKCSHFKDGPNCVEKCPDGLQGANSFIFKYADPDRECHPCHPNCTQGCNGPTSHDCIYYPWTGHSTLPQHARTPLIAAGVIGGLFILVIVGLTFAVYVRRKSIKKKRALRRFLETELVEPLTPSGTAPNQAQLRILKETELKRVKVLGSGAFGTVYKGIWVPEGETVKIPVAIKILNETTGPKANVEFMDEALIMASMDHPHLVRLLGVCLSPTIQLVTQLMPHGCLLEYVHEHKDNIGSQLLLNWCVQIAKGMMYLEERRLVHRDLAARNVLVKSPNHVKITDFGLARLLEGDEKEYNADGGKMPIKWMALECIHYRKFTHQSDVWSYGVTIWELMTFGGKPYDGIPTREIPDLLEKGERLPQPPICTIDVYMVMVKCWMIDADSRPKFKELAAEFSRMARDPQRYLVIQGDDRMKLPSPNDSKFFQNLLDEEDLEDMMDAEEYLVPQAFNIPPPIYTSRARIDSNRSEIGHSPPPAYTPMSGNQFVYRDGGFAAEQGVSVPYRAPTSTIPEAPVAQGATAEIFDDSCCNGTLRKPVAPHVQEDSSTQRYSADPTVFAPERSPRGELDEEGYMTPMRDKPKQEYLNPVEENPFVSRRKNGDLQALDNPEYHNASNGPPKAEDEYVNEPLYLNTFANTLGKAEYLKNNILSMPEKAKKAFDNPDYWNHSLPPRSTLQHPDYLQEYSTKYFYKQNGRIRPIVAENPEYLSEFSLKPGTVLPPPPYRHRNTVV
# Chain of ERBB2 (HER2) (P04626 23-1255): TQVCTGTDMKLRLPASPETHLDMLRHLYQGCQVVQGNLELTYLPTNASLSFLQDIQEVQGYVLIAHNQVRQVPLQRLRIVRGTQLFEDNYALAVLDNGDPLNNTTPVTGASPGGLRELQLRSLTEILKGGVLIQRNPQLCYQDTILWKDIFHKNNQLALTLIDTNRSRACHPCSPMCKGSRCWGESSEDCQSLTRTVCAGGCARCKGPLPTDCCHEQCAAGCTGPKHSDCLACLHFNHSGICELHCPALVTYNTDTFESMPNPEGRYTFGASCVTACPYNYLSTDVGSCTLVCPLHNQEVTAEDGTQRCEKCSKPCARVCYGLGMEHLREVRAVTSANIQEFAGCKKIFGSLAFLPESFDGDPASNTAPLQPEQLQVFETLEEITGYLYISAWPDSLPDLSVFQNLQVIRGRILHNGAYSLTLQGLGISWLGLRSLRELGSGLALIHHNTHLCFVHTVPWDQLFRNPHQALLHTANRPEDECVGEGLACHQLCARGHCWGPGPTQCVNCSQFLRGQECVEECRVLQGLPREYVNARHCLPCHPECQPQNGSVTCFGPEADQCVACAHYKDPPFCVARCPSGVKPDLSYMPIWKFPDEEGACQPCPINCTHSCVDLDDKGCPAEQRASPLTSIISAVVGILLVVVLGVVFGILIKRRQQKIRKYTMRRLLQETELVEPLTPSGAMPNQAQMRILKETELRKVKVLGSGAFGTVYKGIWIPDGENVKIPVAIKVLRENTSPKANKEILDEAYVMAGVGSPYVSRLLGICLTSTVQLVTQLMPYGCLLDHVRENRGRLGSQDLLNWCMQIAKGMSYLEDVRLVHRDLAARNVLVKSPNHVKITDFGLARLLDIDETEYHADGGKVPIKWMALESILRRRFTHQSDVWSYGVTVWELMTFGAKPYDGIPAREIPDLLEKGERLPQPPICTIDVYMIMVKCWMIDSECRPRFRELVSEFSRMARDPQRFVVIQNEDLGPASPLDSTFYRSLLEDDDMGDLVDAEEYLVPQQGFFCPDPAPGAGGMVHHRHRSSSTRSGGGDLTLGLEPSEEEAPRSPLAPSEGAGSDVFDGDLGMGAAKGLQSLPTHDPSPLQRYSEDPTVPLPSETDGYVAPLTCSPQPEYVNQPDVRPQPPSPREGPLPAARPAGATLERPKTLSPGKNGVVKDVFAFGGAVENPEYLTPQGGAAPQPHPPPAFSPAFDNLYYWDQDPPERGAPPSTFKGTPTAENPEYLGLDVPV
# Chain of EGFR (ErbB1) (P00533 25-1210): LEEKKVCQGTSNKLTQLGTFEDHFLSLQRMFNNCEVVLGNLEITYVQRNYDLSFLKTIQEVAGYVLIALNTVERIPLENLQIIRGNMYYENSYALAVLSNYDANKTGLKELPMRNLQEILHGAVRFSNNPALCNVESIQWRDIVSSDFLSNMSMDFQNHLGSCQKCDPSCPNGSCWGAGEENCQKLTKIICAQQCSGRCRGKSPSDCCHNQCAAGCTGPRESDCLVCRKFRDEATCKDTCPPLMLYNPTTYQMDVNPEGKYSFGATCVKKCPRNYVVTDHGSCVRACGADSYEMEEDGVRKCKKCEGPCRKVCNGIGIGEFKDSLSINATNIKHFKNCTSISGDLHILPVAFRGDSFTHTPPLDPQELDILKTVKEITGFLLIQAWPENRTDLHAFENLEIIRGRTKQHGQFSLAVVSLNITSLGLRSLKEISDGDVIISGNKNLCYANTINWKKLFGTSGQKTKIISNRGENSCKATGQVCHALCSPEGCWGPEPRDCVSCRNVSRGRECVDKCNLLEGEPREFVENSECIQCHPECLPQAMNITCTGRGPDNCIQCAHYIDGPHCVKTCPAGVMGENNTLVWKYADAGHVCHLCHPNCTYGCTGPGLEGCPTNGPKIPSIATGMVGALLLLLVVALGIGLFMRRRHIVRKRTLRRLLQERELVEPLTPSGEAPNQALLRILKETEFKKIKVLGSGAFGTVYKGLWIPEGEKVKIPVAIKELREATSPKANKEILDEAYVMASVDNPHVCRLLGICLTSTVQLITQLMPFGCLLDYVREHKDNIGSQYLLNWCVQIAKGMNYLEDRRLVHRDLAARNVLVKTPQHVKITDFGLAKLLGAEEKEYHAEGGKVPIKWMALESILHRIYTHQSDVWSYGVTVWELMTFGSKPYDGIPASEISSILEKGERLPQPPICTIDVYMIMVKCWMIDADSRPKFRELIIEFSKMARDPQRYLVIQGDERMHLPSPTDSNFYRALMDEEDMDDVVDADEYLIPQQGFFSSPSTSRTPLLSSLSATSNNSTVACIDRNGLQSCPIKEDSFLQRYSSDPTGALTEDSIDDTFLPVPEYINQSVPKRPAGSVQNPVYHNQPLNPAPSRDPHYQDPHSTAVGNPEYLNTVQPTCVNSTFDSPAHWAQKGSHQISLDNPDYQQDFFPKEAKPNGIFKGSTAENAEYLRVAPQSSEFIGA
# Chain of IGF1R (P08069 31-1367): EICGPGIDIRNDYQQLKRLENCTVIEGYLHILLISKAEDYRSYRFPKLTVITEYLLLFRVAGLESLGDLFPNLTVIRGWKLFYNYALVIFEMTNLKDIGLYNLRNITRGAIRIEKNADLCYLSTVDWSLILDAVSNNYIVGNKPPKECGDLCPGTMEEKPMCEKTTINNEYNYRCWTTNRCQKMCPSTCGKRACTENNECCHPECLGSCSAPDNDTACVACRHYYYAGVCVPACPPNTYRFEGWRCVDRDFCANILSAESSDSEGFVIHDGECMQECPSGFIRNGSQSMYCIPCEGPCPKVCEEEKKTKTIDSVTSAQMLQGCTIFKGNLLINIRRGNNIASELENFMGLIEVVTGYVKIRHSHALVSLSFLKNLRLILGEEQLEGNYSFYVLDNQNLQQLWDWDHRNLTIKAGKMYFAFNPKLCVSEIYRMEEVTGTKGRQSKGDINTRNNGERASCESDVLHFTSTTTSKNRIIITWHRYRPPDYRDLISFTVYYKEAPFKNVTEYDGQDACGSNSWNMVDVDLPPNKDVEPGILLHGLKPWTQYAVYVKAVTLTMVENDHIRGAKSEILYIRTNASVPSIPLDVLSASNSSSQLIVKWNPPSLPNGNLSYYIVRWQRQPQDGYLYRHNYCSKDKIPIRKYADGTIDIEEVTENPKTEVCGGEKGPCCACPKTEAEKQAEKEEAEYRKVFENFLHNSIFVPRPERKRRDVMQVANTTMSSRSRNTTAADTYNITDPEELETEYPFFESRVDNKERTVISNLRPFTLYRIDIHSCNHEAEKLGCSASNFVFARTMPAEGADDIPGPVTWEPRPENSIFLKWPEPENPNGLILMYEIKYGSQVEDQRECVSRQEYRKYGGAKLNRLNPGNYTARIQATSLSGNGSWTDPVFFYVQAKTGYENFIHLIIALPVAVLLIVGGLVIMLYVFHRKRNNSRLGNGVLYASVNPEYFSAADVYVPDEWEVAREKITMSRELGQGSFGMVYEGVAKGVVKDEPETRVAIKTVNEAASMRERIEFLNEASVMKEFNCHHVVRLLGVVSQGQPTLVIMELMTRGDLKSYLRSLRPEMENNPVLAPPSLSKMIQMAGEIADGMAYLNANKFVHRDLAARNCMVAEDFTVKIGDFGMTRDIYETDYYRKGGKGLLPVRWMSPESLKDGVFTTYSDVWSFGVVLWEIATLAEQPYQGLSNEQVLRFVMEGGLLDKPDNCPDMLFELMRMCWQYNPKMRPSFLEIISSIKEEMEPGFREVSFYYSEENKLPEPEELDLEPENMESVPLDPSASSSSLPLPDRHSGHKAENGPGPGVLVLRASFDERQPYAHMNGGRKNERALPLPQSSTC
compound,measurement,setting,value
O=C1C[C@@H](c2ccc(O[C@@H]3O[C@H](CO)[C@@H](O)[C@H](O)[C@H]3O)cc2)Oc2cc(O)ccc21 [Liquiritin],IC50,"MCF10A cells; Homo sapiens, MCF-10A, MCF10A, MTT, 24 h",27.9 ± 1.1 µM
same,selectivity index (SI),MCF10A cells; IC50 MCF10A / IC50 BT-474,8
same,selectivity index (SI),MCF10A cells; IC50 MCF10A / IC50 SKBR3,4.4
same,reduction in migration,SKBR3 cells,approximately 23%
same,proportion of cells in G1 phase,BT-474 cells [1],~88%
same,early apoptosis (Annexin V+/PI−) cells,BT-474 cells [2],22.05%
same,late apoptosis (Annexin V+/PI+) cells,BT-474 cells [2],11.44%
same,necrosis,BT-474 cells [2],3.7%
same,inhibition at 0.1 µM,ALK,7%
same,inhibition at 0.1 µM,EGFR (ErbB1),> 80%
same,Mean inhibition (%),EGFR (ErbB1); 0.1 µM,99%
same,inhibition at 0.1 µM,ERBB2 (HER2),> 80%
same,Mean inhibition (%),ERBB2 (HER2); 0.1 µM,92%
same,inhibition at 0.1 µM,ERBB4 (HER4),> 80%
same,Mean inhibition (%),ERBB4 (HER4); 0.1 µM,88%
same,inhibition at 0.1 µM,FGFR1,7%
same,inhibition at 0.1 µM,FLT1 (VEGFR1),2%
same,inhibition at 0.1 µM,IGF1R,4%
same,inhibition at 0.1 µM,KDR (VEGFR2),4%
same,inhibition at 0.1 µM,KIT,0%
same,inhibition at 0.1 µM,MET (cMet),5%
same,inhibition at 0.1 µM,MST1R (RON),7%
same,inhibition at 0.1 µM,PDGFRB (PDGFR beta),4%
same,inhibition at 0.1 µM,RET,2%
same,inhibition at 0.1 µM,ROS1,8%
same,inhibition at 0.1 µM,TYRO3 (RSE),5%
